The source of these data is patent publication US8252798B2, “Purine compounds” (Eli Lilly and Company, priority 2008, dated 2012).

Counter-ions that a name gives are not always drawn.

Experiment [1] addresses T1, hCB1-CHO membranes (Homo sapiens, UniProt P21554).
T1 construct: expressed in transfected cells; host or cells: CHO
Nature of the experiment: CB1 in vitro functional assay, SPA based GTP-γ-35S binding, agonist mode (whole membrane capture). It counts as biochemical. The note with it: normalized to full agonist methanandamide, read-out: relative EC50 value for CB1. As to the method:
(§1) Exemplified compounds are tested in agonist mode using a SPA based GTP-γ-^35S binding assay. All assay components are prepared in assay buffer made up of 20 mM HEPES, 100 mM NaCl, 5 mM MgCl2, (pH 7.4 at room temperature). Semi-log compound dilutions are done in assay buffer containing BSA (final 0.125%). GTP-γ^35-S binding is measured in a 96 well format using a whole membrane capture technique for the CB1 assay and modifications of an antibody capture technique previously described (DeLapp et al. J Pharmacol Exp Ther 289:946-955, 1999) for the CB2 assay. All incubations are done at room temperature.
hCB1-CHO membranes, GDP (1 uM final), and saponin (10 ug/mL final) are added to assay buffer and homogenized. Diluted compounds, GTP-γ-^35S (500 nM final) and membranes are added to the assay plate and incubated for 30 minutes. Then 1 mg/well Wheatgerm Agglutinin SPA bead is added, and the plates are sealed, vortexed, and incubated for an additional hour. Plates are then centrifuged at 700×g for 10 minutes and counted for 1 minute per well using a scintillation counter.
To analyze data, first subtract background from all wells. Determine percent agonist efficacy by normalizing agonist/inverse agonist dose response data to a full agonist (methanandamide) response. Analyze the data using a 4-parameter logistic reduced fit with Activity Base and XLFit3.
(In general: GTPγS resists hydrolysis and so accumulates on activated G proteins.)

For experiment [2], the target named is T2, hCB2-Sf9 membranes (Homo sapiens, UniProt P34972).
T2 construct: expressed in transfected cells; host or cells: Sf9
T2 sequence (P34972 whole entry): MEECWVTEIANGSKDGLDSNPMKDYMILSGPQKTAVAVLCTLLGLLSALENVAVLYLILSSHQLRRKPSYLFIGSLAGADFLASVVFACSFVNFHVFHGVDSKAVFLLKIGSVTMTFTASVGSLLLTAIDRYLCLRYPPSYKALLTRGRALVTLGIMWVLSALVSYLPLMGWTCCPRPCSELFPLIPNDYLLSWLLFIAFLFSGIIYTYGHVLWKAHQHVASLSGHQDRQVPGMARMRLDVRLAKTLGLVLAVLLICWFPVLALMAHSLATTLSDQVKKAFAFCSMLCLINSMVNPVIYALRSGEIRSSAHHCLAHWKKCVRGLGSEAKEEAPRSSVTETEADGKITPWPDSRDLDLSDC
Nature of the experiment: CB2 in vitro functional assay, SPA based GTP-γ-35S binding, agonist mode (antibody capture). The experiment is classed as biochemical. Particulars: normalized to full agonist methanandamide, read-out: relative EC50 value for CB2. The procedure: as §1
hCB2-Sf9 membranes and GDP (1 uM final) are added to assay buffer and homogenized. Diluted compounds and membranes are added to the assay plate and pre-incubated for 15 minutes. This is followed by addition of GTP-γ-^35S (500 nM final) and another 35 minute incubation. Next a mixture containing Nonidet® P40 detergent (0.2% final), anti-Gi antibody (final dilution of 1:362), and 1.25 mg anti-rabbit antibody scintillation proximity assay beads is added. The plates are then sealed, vortexed, and incubated for an additional 2 hours before centrifuging and counting as for CB1.
To analyze data, first subtract background from all wells. Determine percent agonist efficacy by normalizing agonist/inverse agonist dose response data to a full agonist (methanandamide) response. […]

Experiment [3] concerns the target T3, human CB2 receptor (Homo sapiens, UniProt P34972).
T3 construct: expressed in transfected cells
The experiment is described as follows: Displacement of 3H-CP55940 from human CB2 receptors. It counts as binding. Particulars: displacement of 3H-CP55940, human CB2 membrane homogenates. The procedure:
(§2) The methods of Felder et al. (Mol. Pharmaocol. 48:443-450, 1995) were utilized with minor modifications. Specifically, membrane homogenates from cells stably or transiently expressing the human or rat CB2 receptor were washed by centrifugation and diluted into a 50 mM Tris HCl (pH 7.4), 5 mM MgCl2, 2.5 mM EDTA, and 0.1% BSA buffer. Specific binding of 3H-CP55940 was defined with 1 μM CP55940. The ability of compounds to displace specific 3H-CP55940 binding was tested over a range of concentrations in the Tris, MgCl2, EDTA, BSA buffer in the presence of 1% dimethyl sulfoxide by incubating at room temperature for 90 minutes in a volume of 300 μl. Unifilter 96-well microplates pretreated with 0.5% polyvinylpyrrolidone, 0.1% polysorbate 20 in water were washed three times with cold Tris buffer. The reaction mixture was then transferred to the filter plate immediately before terminating the incubation by rapid filtration and three 200 μl washes with cold Tris buffer. After the filter plates dried, microscint 20 was added to each well, the plate sealed and counted for determination of disintegrations per minute. The displacement curves were graphed and the resulting Ki values determined utilizing Graphpad Prism.
Background: In a radioligand displacement assay an active substance lowers the binding of a labelled ligand.

The target in experiment [4] is T4, rat CB2 receptor (Rattus norvegicus, UniProt Q9QZN9).
T4 construct: expressed in transfected cells
T4 sequence (Q9QZN9 1-360): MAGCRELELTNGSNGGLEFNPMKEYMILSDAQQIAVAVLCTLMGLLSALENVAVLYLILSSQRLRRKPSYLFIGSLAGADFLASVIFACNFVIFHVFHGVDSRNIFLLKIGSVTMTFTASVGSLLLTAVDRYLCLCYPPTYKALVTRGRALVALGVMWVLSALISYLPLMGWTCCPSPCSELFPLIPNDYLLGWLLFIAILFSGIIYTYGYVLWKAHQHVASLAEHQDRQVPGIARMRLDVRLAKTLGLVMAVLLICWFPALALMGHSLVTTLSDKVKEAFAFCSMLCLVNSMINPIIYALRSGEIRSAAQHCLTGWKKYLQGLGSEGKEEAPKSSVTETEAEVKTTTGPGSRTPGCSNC
Nature of the experiment: Displacement of 3H-CP55940 from rat CB2 receptors. It counts as binding. The note with it: displacement of 3H-CP55940, rat CB2 membrane homogenates. As to the method:
as §2

The subject of experiment [5] is male Lewis rats. The experiment is described as follows: Monoiodoacetate (MIA) model, incapacitance testing of knee pain. The experiment is classed as in vivo. The note with it: rat MIA model. The procedure:
For all studies male Lewis rats of approximately 8 weeks of age at the time of MIA injection are used to measure pain in the MIA model. The rats are housed in groups of 2 or 3 per cage and maintained in a constant temperature and on a 12 hour light/12 hour dark cycle. Animals have free access to food and water at all times except during data collection.
In the standard MIA model the right knees of each rat are injected with 0.3 mg MIA in 50 ul of saline and the left knees with 50 ul of saline. Pain is measured at varying times after MIA injection (not normally before 10 day post MIA injection) using incapacitance testing. This measures the difference in hind paw weight bearing between the MIA and saline injected knees, and each measurement is the average of 3 separate measurements each measured over 1 second.
For studies with CB2 agonists rats are randomized into dose groups (n=5 or 6) and then dosed once with the compound under investigation. Dosing is staggered by 15 minutes for each rat and at a predetermined time post-dose (usually 2 hours), pain measured using incapacitance testing. Studies are routinely run with 4 groups, vehicle (1% carboxy methyl cellulose in water plus 0.25% polysorbate 80) and 3 compound groups which can be either single compounds at a single dose or the same compound at 3 doses. […]

T1 sequence (P21554 whole entry): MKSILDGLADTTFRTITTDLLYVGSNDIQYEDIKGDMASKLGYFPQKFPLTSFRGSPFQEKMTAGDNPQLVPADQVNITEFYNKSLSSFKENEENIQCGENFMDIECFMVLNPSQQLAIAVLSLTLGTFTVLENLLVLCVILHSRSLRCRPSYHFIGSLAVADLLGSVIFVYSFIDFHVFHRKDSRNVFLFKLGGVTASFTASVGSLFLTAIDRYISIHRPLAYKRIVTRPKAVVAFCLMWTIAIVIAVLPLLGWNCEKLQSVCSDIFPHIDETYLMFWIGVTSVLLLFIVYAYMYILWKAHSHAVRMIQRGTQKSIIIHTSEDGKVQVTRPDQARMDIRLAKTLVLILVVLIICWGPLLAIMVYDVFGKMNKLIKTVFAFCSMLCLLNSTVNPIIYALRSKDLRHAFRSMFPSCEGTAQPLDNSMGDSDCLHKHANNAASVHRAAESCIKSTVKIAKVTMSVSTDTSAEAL
T3 sequence (P34972 whole entry): as the sequence (P34972 whole entry) above

For `Cc1nc(N2CCN3C(=O)CCC3C2)c2nc(-c3ccccc3Cl)n(CC3CCOCC3)c2n1` (single isomer, unassigned) [Example 61, 2-[8-(2-Chloro-phenyl)-2-methyl-9-(tetrahydro-pyran-4-ylmethyl)-9H-purin-6-yl]-hexahydro-pyrrolo[1,2-a]pyrazin-6-one hydrochloride salt], the results for the EC50 in experiment [1] and in experiment [2] were 1950 nM and 18 nM, respectively.

Take `Cc1nc(N2CCN(C)CC2)c2nc(-c3cccnc3C3CC3)n([C@@H]3CCOC3)c2n1` [Example 76, 8-(2-Cyclopropyl-pyridin-3-yl)-2-methyl-6-(4-methyl-piperazin-1-yl)-9-(R)-tetrahydro-furan-3-yl-9H-purine hydrochloride salt]: the figures for the Ki in experiment [3] and in experiment [4] were 33.9 nM and 31.3 nM, respectively.

`Cc1nc(N2CCN(C)CC2)c2nc(-c3ccccc3Cl)n([C@@H]3CCOC3)c2n1.Cl` [Example 88, 8-(2-Chloro-phenyl)-2-methyl-6-(4-methyl-piperazin-1-yl)-9-(R)-tetrahydro-furan-3-yl-9H-purine hydrochloride salt]: the “pain versus vehicle (difference in hind paw weight bearing)” value in experiment [5] (oral dose 0.3 mg/kg) and in experiment [5] (oral dose 1 mg/kg) was “significantly reduce pain versus vehicle” in each case.

In general, EC50 refers to the concentration that produces a half-maximal response. As usually defined, the Ki is the dissociation constant of the complex between target and ligand, obtained from inhibition or displacement.
